According to article PMC9645344, “Serotonin-releasing agents with reduced off-target effects” (Molecular Psychiatry, 2022):
Counter-ions that a name gives are not always drawn.

Legend:
VMAT2 = test system: VMAT2; set-up: method as in PMID 25771452; settings: racemic; cited from earlier work
[1] = test system: extracellular 5-HT in the NAc; assay: Fiber photometry with GRAB5-HT sensor in the NAc of freely moving mice; assay type: in vivo
Method: (§1) All in vivo experiments were performed in adult mice (>6 weeks old). For the photometry and microdialysis experiments, which were carried out in Florida, male C57BL/6J mice from The Jackson Laboratory (Bar Harbor, ME, USA) were group-housed in polycarbonate cages (GM500, Tecniplast, Buguggiate, Italy) with lights on from 7 a.m. to 7 p.m. Food and water were provided ad libitum. Photometry and microdialysis experiments were performed in accordance with a protocol approved by the Institutional Animal Care and Use Committee at Florida Atlantic University. For the behavioral experiments, which were carried out in Vienna, C57BL/6N mice from Charles River (Sulzfeld, Germany) were group-housed in polycarbonate cages with lights on from 7 a.m. to 7 p.m. Food and water were provided ad libitum. Behavioral experiments were performed in accordance with a protocol approved by the Austrian national ethical committee on animal care and use (Bundesministerium für Wissenschaft und Forschung: BMWFW-66.009/0016-WF/V/3b/2015). All animal procedures were conducted in agreement with the ARRIVE guidelines and the U.K. Animal (Scientific Procedures) Act, 1986, and associated guidelines, EU Directive 2010/63/EU for animal experiments. Mice were given at least 1 week to acclimate before being used in any experiments.
Mice were anesthetized with isoflurane (5% induction, 2% maintenance) and placed into a stereotaxic frame (Kopf Instruments, Tujunga, CA, USA) oriented in the flat skull position. Ophthalmic ointment was applied to prevent drying of the eyes. Ketoprofen (10 mg kg^−1) was administered subcutaneously (s.c.), whereas bupivacaine and lidocaine were administered locally (s.c.; 100 µl of sterile saline containing 0.05% bupivacaine and 0.2% lidocaine) to the surgical site atop the head. A midline incision was made through the skin on the dorsal surface of the head to expose the skull. Fascia was removed, coordinates for the NAc were determined relative to bregma: anterior/posterior = 1.54 mm; medial/lateral = 0.7 mm; dorsal/ventral = −4.1 mm. A 1 mm burr hole was drilled through the skull. […] For the mice used for fiber photometry, 4*10^12 genome copies of AAV9-hSyn-5-HT2h or 10^10 genome copies of AAV-hSyn-DA2m were delivered into the NAc at an infusion rate of 100 nl min^−1 (total volume of 1 µl) using a 34-gauge needle attached to a 10 µl Nanofil microsyringe (Hamilton, Reno, NV, USA), as previously described. Following injection of the virus, an optical fiber was lowered through the burr hole and secured with glass ionomer cement. Three 1.6 mm screws (00-96X1/16 39052, Plastics One Inc., Roanoke, VA, USA) were affixed to the skull to support a cement stage that was created to secure the implanted guide cannulae or optical fiber. Mice were singly housed following surgery and allowed 6 days of recovery for the microdialysis experiments or 21 days for the photometry experiments. Food and water were available ad libitum.
To monitor light emitted from the G-protein coupled receptor-activation-based 5-HT (GRAB5-HT) and DA (GRABDA) sensors, fiber photometry was performed as described. Briefly, a light emitting diode (465 nm) (CLED_465, Doric Lenses, Quebec, QC, Canada), reflected through a dichroic mirror, was coupled to an optical fiber (200 µm core/225 cladding diameter; Thorlabs, Newton, NJ, USA) that was glued to a metal ferrule (Doric Lenses, Quebec, QC, Canada) and implanted into the NAc as described above. Emitted, band-pass filtered light (500–550 nm, FMC6, Doric Lenses, Quebec,QC, Canada) was detected with a photodetector (Newport Femtowatt silicone PIN; New Focus, San Jose, CA, USA). Data were recorded using a RZ5P lock-in amplifier (Tucker-Davis Technologies, Alachua, FL, USA) controlled with Synapse software. Sinusoidal excitation was delivered at 210 Hz by an LED driver Doric Lenses, LEDD_4) at low power mode. A demodulated signal was low-pass filtered at 6 Hz and digitized at 1017 Hz. […]

human DAT = target: T1, human DAT (Homo sapiens, UniProt Q01959); assay: DAT uptake inhibition assay in HEK293 cells ([3H]MPP+); assay type: cell-based; settings: for DAT/SERT ratio: (1/DAT IC50)/(1/SERT IC50), higher values indicate higher DAT-selectivity
T1 construct: expressed in transfected cells
Method: (§2) Human embryonic kidney 293 (HEK293) cells stably expressing the human isoforms of either DAT or SERT were maintained in Dulbecco’s Modified Eagle Medium (DMEM), supplemented with 10% fetal calf serum at a subconfluent state in humidified atmosphere (5% CO2, 37 °C).
(§3) Uptake inhibition assays were performed as described earlier. Briefly, HEK293 cells stably expressing human SERT or DAT were seeded onto poly- D-lysine (PDL) coated 96-well plates (40,000 cells well^−1) the day before an experiment. Prior to the uptake inhibition assay, DMEM was replaced with Krebs-HEPES buffer (KHB, 25 mM HEPES, 120 mM NaCl, 5 mM KCl, 1.2 mM CaCl2, 1.2 mM MgSO4, and 5 mM D-glucose, pH 7.3) and the cells were preincubated with test drugs for 5 min at room temperature. Uptake assays were initiated by adding 20 nM [^3H]MPP^+ to DAT cells or 100 nM [^3H]5-HT to SERT cells. After 180 s (DAT) or 60 s (SERT), the tritiated substrate was removed by aspiration. Cells were washed once with ice-cold KHB, then lysed in 1% sodium dodecyl sulfate (SDS) and subjected to liquid scintillation counting to quantify tritium accumulated in each sample. Non-specific uptake was determined in the presence of mazindol (1 µM) for DAT or paroxetine (1 µM) for SERT and subtracted throughout.

human SERT [2] = target: T2, human SERT (Homo sapiens, UniProt P31645); assay: SERT uptake inhibition assay in HEK293 cells ([3H]5-HT); assay type: cell-based
T2 construct: expressed in transfected cells
Method: as §2, §3

human SERT [3] = target: T2, human SERT; assay: [3H]5-HT release assay in HEK293 cells (superfusion); assay type: cell-based; settings: 10 µM, SERT-expressing HEK293 cells
Method: HEK293 cells stably expressing SERT were seeded onto PDL-coated glass coverslips (5 mm diameter) that were placed into 96-well plates at a density of 40,000 cells per well the day before the experiment. Cells were preloaded with [^3H]5-HT (0.4 µM, 20 min at 37 °C). Subsequently, the cells were transferred into small chambers with a total volume of 200 µl and superfused with KHB at a flow rate of 0.7 ml per min for 40 min to establish a stable baseline before the collection of 2-min fractions was initiated. For each experiment, three basal fractions were collected before the cells were exposed to various concentrations (given in the figure legends) of the test drugs for five fractions. Subsequently, the cells were superfused with 1% SDS for three final fractions that served to determine the total amount of radioactivity present within the cells at the end of each experimental run. The amount of tritium within each fraction was determined by liquid scintillation counting, and release was expressed as percentage of radioactivity released in relation to the total radioactivity present at the beginning of that fraction. Observations from superfusion experiments were excluded in case of premature exposure to SDS.

C57BL/6N mice [4] = assay: Forced-swim test (FST); assay type: in vivo; settings: for immobility time in the FST versus vehicle: mice
Method: as §1
(§4) For behavioral assays, animals were assigned to treatment groups and injected with test drugs by an unblinded observer.
The FST was performed as previously described. In brief, mice were placed for 6 min in a beaker (diameter: 19 cm, height: 23 cm), halfway filled with water (22–23 °C), and the immobility time was quantified using the software Videotrack (Viewpoint, Champagne au Mont d’Or, France). Immobility was defined as the absence of any movement, except for those required to keep the head above the water. The time spent immobile during the final 4 min of the test was used as a measure of behavioral despair. Animal sample size was confirmed using a post hoc analysis of the achieved power using G*Power3.1 [29]. Using a significance level (α) of 0.05 and an effect size f = 2.5 and a sample size of 6 animals/group we achieved the commonly accepted statistical power (1−β) of 0.8.

rat brain synaptosomes = test system: rat brain synaptosomes; set-up: method as in PMID 26738428; settings: cited from earlier work
C57BL/6N mice [5] = assay: Open-field test; assay type: in vivo; settings: for horizontal locomotor activity (total distance traveled) in the open field test: 1 h
Method: as §1, §4
Mice were placed into an open field arena (27.3 × 27.3 × 27.3 cm) surrounded by infrared beams to track movements. The total distance traveled over 1 h was recorded using Activity Monitor (Med Associates Inc., St. Albans, VT, USA) and interpreted as a measure of the psychostimulant effects. Animal sample size was confirmed using a post hoc analysis of the achieved power using G*Power3.1 [29]. Using a significance level (α) of 0.05 and an effect size f = 1.92 and a sample size of 7.5 animals (5–10)/group we achieved the commonly accepted statistical power (1−β) of 0.8.

VMATs = assay: VMAT uptake inhibition assay in PC12 cells; assay type: cell-based; settings: all at 30 µM, relative to inhibition by 30 µM reserpine
Method: VMAT uptake inhibition assays were conducted as previously described, with some modifications. In brief, […] PC12 cells per well were seeded in 24-well plates the day before experimentation. The cells were pretreated with 100 nM nisoxetine and mazindol to inhibit non-specific binding. PC12 cells were then preincubated with 200 µM digitonin to permeabilize membranes and were kept at room temperature on a plate shaker at low velocity for 30 min. Cells were treated with test drugs and shaken for another 10 min. Tritiated substrate (0.05 µM [^3H]5-HT) was added, and the cells incubated on the plate shaker for 30 min. To terminate uptake, cells were transferred into 1.5 ml Eppendorf tubes, centrifuged at 5000 rpm for 5 min. The supernatant was aspirated, cells were washed with cold KHB, recentrifuged and lysed with 200 µl SDS. The solutions were transferred into vials containing 2 ml scintillation cocktail and radioactivity was determined via beta-scintillation counting (Perkin Elmer, Waltham, MA, USA). For analysis, inhibitory potency of test drugs was normalized to uptake inhibition caused by the potent VMAT inhibitor reserpine.

[6] = indicated doses (1, 5 and 10 mg kg-1) intraperitoneal

T2 sequence (P31645 whole entry): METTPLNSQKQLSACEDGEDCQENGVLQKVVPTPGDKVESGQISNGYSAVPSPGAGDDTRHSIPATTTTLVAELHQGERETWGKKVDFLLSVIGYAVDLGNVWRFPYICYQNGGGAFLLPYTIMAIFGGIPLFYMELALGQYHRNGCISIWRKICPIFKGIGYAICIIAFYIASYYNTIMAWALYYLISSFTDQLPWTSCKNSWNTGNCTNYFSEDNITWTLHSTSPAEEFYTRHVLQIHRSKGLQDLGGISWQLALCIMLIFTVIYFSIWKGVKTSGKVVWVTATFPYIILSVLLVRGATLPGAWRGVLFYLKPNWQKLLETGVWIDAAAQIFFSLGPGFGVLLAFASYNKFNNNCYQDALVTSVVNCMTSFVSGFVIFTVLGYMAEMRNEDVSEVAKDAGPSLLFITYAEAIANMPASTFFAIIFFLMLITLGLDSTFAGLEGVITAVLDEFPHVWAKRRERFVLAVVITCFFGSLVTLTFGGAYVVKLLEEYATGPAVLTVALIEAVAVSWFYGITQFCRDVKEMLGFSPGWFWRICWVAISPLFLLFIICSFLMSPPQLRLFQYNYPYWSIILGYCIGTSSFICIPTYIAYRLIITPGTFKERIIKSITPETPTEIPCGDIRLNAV
T1 sequence (Q01959 whole entry): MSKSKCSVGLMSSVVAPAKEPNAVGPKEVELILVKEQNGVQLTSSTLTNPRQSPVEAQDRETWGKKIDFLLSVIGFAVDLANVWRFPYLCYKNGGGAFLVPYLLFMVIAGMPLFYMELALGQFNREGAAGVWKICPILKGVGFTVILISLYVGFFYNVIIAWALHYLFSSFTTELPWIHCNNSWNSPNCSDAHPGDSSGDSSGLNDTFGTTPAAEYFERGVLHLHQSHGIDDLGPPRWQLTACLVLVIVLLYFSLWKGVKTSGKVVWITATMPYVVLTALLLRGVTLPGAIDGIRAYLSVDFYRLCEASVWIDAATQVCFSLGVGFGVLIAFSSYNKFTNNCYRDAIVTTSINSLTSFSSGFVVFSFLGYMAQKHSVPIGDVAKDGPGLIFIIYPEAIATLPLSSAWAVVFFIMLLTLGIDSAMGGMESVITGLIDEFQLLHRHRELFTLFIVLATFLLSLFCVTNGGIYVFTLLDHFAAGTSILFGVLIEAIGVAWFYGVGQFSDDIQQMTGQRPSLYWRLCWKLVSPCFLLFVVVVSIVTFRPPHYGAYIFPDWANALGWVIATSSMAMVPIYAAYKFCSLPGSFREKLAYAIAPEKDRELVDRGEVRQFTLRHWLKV

| Compound | extracellular 5-HT in the NAc (GRAB5-HT fluorescence) ([1]; 10 mg kg-1 intraperitoneal) | IC50 (human DAT) | DAT/SERT ratio (human DAT) | IC50 (human SERT [2]) | effect on release of preloaded [3H]5-HT (human SERT [3]) | immobility time in the FST versus vehicle (C57BL/6N mice [4]; 5 mg kg-1 intraperitoneal) | immobility time in the FST versus vehicle (C57BL/6N mice [4]; 10 mg kg-1 intraperitoneal) | further results |
| --- | --- | --- | --- | --- | --- | --- | --- | --- |
| CNC(C)C(=O)c1ccc(C)cc1 (stereo not shown) [4-MMC, 4-methyl-N-methylcathinone] |  |  |  |  |  |  |  | potency to inhibit VMAT2-mediated uptake, lower than that of MDMA (VMAT2): 10 fold |
| CCN[C@@H](C)Cc1cccc(C(F)(F)F)c1 [D-FEN, d-fenfluramine, reference compound] | increased 5-HT when compared to saline |  |  |  |  |  |  | GRAB5-HT basal fluorescence in the NAc ([1]; 3 and 10 mg kg-1 intraperitoneal): increased the basal fluorescence in a dose-dependent manner; relative GRAB5-HT fluorescence at peak versus saline ([1]; t = 700-900 s post injection, drug alone, D-FEN 10, S-4-MC 5, S-4-TFMMC 10 mg kg-1 intraperitoneal): Significant effects |
| Cc1ccc(C(=O)[C@@H](C)N)cc1 [R-4-MC, 4-methylcathinone] |  | 9.6 µM | 19.3 | 186 µM | did not alter basal release of 5-HT | had no effect | had no effect | immobility time in the FST versus vehicle (C57BL/6N mice [4]; 1 mg kg-1 intraperitoneal): had no effect; extracellular 5-HT in the NAc (GRAB5-HT fluorescence) ([1]; 5 mg kg-1 intraperitoneal): no effect on 5-HT was observed; 5-HT release efficacy in rat brain synaptosomes (rat brain synaptosomes): fully efficacious 5-HT releaser |
| CN[C@H](C)C(=O)c1ccc(C)cc1 [R-4-MMC, 4-methyl-N-methylcathinone] |  | 12.5 µM | 6.2 | 77.1 µM | did not alter basal release of 5-HT |  | significantly reduced immobility time | horizontal locomotor activity (total distance traveled) in the open field test (C57BL/6N mice [5]; 10 mg kg-1 intraperitoneal): significantly affected horizontal locomotor activity |
| CN[C@H](C)C(=O)c1ccc(C(F)(F)F)cc1 [R-4-TFMMC, 4-trifluoromethyl-N-methylcathinone] | no effect on 5-HT was observed | 153 µM | 0.15 | 22.6 µM | did not alter basal release of 5-HT | had no effect | had no effect | immobility time in the FST versus vehicle (C57BL/6N mice [4]; 1 mg kg-1 intraperitoneal): had no effect |
| CN[C@H](C)C(=O)c1ccccc1 [R-MC, N-methylcathinone] |  | 10.6 µM | 90.7 | 964 µM | did not alter basal release of 5-HT |  |  |  |
| CN[C@@H](C)C(=O)c1ccc(C)cc1 [S-4-MMC, 4-methyl-N-methylcathinone] |  | 10.3 µM | 1.06 | 10.9 µM | robustly increased | significantly reduced immobility time versus vehicle | significantly reduced immobility time versus vehicle | inhibition of VMAT-mediated transport compared to MDMA (VMATs): no difference; time spent immobile in the FST, male and female mice (C57BL/6N mice [4]; 5 mg kg-1 intraperitoneal, male and female mice): significantly reduced the time spent immobile regardless of sex; vertical counts in the open field test (C57BL/6N mice [5]; [6]): affected vertical counts; horizontal locomotor activity (total distance traveled) in the open field test (C57BL/6N mice [5]; [6]): did not differ from vehicle |
| CN[C@@H](C)C(=O)c1ccccc1 [S-MC, N-methylcathinone] |  | 9.1 µM | 43.2 | 393 µM | little effect |  |  |  |
| CNCCC(Oc1ccc(C(F)(F)F)cc1)c1ccccc1 (stereo not shown) [fluoxetine, Fluoxetine hydrochloride, reference compound] | without effect |  |  |  |  |  |  |  |
